Data taken from patent US20140205662A1, “SYSTEM AND METHOD FOR […] TIMED LOCAL […] OF A COMBINATION PHARMACEUTICAL PREPARATION FOR ORAL THERAPY” (The Research Foundation for The State University of New York, priority 2010, published 2014).

Tested on: gingival fibroblasts
Experimental: To determine whether the co-administration of these two compounds was cytotoxic, the following experiments were carried out.

Row | Structure (SMILES) | cytotoxicity (in words) | relative cytotoxicity
1 | CC(C(=O)O)c1ccc(-c2ccccc2)c(F)c1 (stereo not shown) [flurbiprofen] | relatively low cytotoxicity | 0 to 0.031 mg/mL
2 | C[C@H]1c2cccc(O)c2C(=O)C2=C(O)[C@]3(O)C(=O)C(C(N)=O)=C(O)[C@@H](N(C)C)[C@@H]3[C@@H](O)[C@@H]21 [doxycycline] | relatively increasing cytotoxicity with increasing concentration | 0 to 0.231 mg/mL
